ChEMBL document CHEMBL3430912, “GSK Tres Cantos Anti-Kinetoplastid Screening (TCAKS) Data”

Tests used:
Leishmania donovani [1] = experiment: GSK_TCAKS: pIC50 Leishmania donovani viability assay using fluorescence intensity. Assay plates (1536-well) were prepared by adding 30nL per well of compound. For single shot assay, the final compound concentration was 5uM. […] Briefly, eGFP LdBOB axenic amastigotes were harvested, fixed and counted in a CASY cell counter (Roche-Applied Science). A final concentration of 1.5 * 10^5 cells per well were prepared in amastigote media containing 500 U/mL penicillin/streptomycin (Invitrogen) and 6uL was dispensed to each experimental well using a Multidrop Combi dispenser (Thermo Scientific). 6uL of assay media was dispensed to control columns used as reference for 100% compound response. Following incubation for 72 h at 37C, 5% CO2, 2 uL of resazurin was added to each well at a final concentration of 0.5 mM in phosphate buffered saline (PBS) with IGEPAL (Sigma-Aldrich), 0.05% (v/v).; type: functional, organism-based
[2] = GSK_TCAKS: pIC50 HepG2 human cell line viability assay using luminiscence. […] Seeding density was checked to ensure that new mono-layers were not more than 50% confluent at the time of harvesting. Cell suspension was added to 500 mL of the same medium at a final density of 1.2 * 10^5 cells/mL. This cell suspension was dispensed (25 uL, 3000 cells per well) into 384-well clear-bottom plates using a Multidrop Combi dispenser. Prior to addition of the cell suspension, the screening compounds (250 nL) were pre-dispensed into the plates with an Echo liquid handler. Plates were incubated for 48 h at 37C, 5% CO2. After incubation, plates equilibrated at room temperature for 30 min before proceeding to develop the luminescent signal. The signal developer, CellTiter-Glo Reagent, was allowed to equilibrate at room temperature for 30 min and added to the plates (25uL per well) using a Multidrop Combi dispenser. Plates were left for 10 min at room temperature for stabilization and then read using a ViewLux.; type: toxicity, cell-based
[3] = system: Trypanosoma brucei brucei; experiment: GSK_TCAKS: pIC50 Trypanosoma brucei viability assay using fluorescence intensity. Assay plates (1536-well) were prepared by dispensing 25nL of compound solution per well using an Echo acoustic dispenser (Labcyte).; type: functional, organism-based; details: Lister 427, 2 h
Trypanosoma cruzi [4] = experiment: (§1) GSK_TCAKS: pIC50 H2C9 Imaging: H9c2 Host Cardiomyocytes. […] Cells were then washed once with PBS before infection. T. cruzi trypomastigotes, collected at days 5 to 8 after infection from LLC-MK2 parasite infected cultures, were allowed to swim out for 4h at 37C from a centrifuged pellet (2,500 rpm/10 min/room temperature). Trypomastigotes were then collected and counted in a CASY Cell Counter. Trypomastigotes, in supplemented DMEM, were added to H9c2 cultures in a multiplicity of infection of 1 and incubated for 18 h. Cells were washed once with PBS before incubation of the infected H9c2 monolayer with trypsin (Life-Technologies) to detach cells from the flask. Cells were counted in a CASY Cell Counter using a 150 um capillary and their density set at 5 * 10^4 cells per mL in supplemented assay DMEM. Infected H9c2 were dispensed into 384-well poly-lysine coated assay plates at 50uL per well using a Multidrop Combi dispenser. After seeding them, the plates were incubated at 37C, 5% CO2 for 72h. Cultures were then fixed and stained by addition of 50 uL of a solution containing 8% formaldehyde and 4 uM DRAQ5 DNA dye (BioStatus, UK) per well. […] Five images were collected per well for reliable statistical analysis. Automated image analysis was performed with a script developed on Acapella High Content Imaging and Analysis Software (PerkinElmer). Output: Number of H9c2 Host Cardiomyocytes nuclei to determine drug-related cytotoxicity.; type: functional, organism-based, Rattus norvegicus; details: H9c2, 4 h
Leishmania donovani [5] = experiment: (§2) GSK_TCAKS: pIC50 Leishmania donovani Imaging: Amastigotes/Macrophages. Assay plates (384-well) were prepared by adding 250nL of compound to each well. For single shot assay, the final compound concentration was 5 uM. […] Automated image analysis was performed with a script developed on Acapella High Content Imaging and Analysis Software (PerkinElmer). Output: Average number of amastigotes per macrophage cell were reported for each well.; type: functional, organism-based, Homo sapiens; details: THP-1
Leishmania donovani [6] = experiment: as §2, with “Infected Macrophages.” for “Amastigotes/Macrophages.”, “Percent” for “Average number”, “infected” for “amastigotes per”, “cells” for “cell”; type: functional, organism-based, Homo sapiens; details: THP-1
Trypanosoma cruzi [7] = experiment: GSK_TCAKS: pIC50 Trypanosoma cruzi viability assay using beta-GAL activity. This assay was run at single shot at 5uM compound concentration per well. The biological reagents consisted of NIH-3T3 host cells and trypomastigotes parasitic cells; both cell types were set to a 3.3 * 10^5 cells/mL dilution in assay DMEM by means of a CASY cell counter device using a 60um capillary. 6 uL of the mixture were dispensed per well (about 1 * 10^3 host-cells and 1 * 10^3 parasites) with a Multidrop Combi dispenser. […] In all wells, the percentage of DMSO never exceeded 0.5%. Plates incubated for four days at 37C, 5% CO2. The substrate used for the assay fluorescence intensity (FLINT) readout was resorufin-beta-D-galactopiranoside (Sigma-Aldrich) at 5uM per well. It was diluted in PBS supplemented with the soft detergent Igepal (Fluka).; type: functional, organism-based, Mus musculus; details: Tulahuen, NIH3T3
[8] = system: Trypanosoma brucei brucei; experiment: GSK_TCAKS: pIC50 Trypanosoma brucei viability assay using luminiscence. Assay plates (1536-well) were prepared. T. brucei cultures were harvested and counted in a CASY cell counter. A parasite suspension was prepared at a final concentration of 5 * 10^4 cells/mL in complete HMI9 medium and 6uL was dispensed to all wells containing compounds using a Multidrop Combi dispenser. 6uL of HMI9 media with 0.4% DMSO were dispensed to control columns. Plates were incubated for 24 h at 37C, 5% CO2 then tempered for 10 min at room temperature. ATP content was quantified by adding 4 uL of CellTiter-Glo Reagent (Promega) according to the manufacturer's instructions. Luminescence was measured using a ViewLux.; type: functional, organism-based; details: Lister 427, CASY
Trypanosoma cruzi [9] = experiment: as §1, with “Trypanosoma cruzi” for “H2C9”, “Amastigotes/Cell.” for “H9c2 Host Cardiomyocytes.”, “number” for “Number”, “amastigotes per cell as infection level measurement.” for “H9c2 Host Cardiomyocytes nuclei to determine drug-related cytotoxicity.”; type: functional, organism-based, Rattus norvegicus; details: H9c2, 4 h
Trypanosoma cruzi [10] = experiment: as §1, with “Trypanosoma cruzi” for “H2C9”, “Infected Cells.” for “H9c2 Host Cardiomyocytes.”, “percentage” for “Number”, “infected cells per well as a second infection marker.” for “H9c2 Host Cardiomyocytes nuclei to determine drug-related cytotoxicity.”; type: functional, organism-based, Rattus norvegicus; details: H9c2, 4 h
Leishmania donovani [11] = experiment: as §2, with “THP-1 Host Macrophages.” for “Amastigotes/Macrophages.”, “THP-1” for “Average number of amastigotes per macrophage”, “cell count” for “cell”; type: functional, organism-based, Homo sapiens
[12] = target: Sterol 14-alpha demethylase (Trypanosoma cruzi (strain CL Brener), UniProt Q7Z1V1); experiment: GSK_TCAKS: pIC50 CYP51 from Trypanosoma cruzi.; type: functional
Chain of Sterol 14-alpha demethylase (Q7Z1V1 whole entry): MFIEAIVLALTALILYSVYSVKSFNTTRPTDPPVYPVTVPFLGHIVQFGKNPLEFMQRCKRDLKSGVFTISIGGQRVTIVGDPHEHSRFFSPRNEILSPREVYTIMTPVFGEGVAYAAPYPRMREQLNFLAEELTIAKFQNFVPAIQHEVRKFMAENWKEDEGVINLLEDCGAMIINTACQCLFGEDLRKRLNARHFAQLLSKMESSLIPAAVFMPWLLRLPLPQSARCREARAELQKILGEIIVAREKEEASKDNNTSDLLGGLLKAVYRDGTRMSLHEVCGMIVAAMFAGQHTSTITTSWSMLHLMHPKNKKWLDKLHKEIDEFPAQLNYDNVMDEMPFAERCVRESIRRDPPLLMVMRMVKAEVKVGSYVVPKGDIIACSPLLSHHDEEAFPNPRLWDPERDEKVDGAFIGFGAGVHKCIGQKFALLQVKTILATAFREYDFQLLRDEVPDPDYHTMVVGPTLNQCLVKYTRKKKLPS

| SMILES | IC50 (Leishmania donovani [1]) | IC50 at 48 h [2] | IC50 [3] | IC50 (Trypanosoma cruzi [4]) | IC50 (Leishmania donovani [5]) | IC50 (Leishmania donovani [6]) | IC50 (Trypanosoma cruzi [7]) | IC50 [8] | IC50 (Trypanosoma cruzi [9]) | IC50 (Trypanosoma cruzi [10]) | IC50 (Leishmania donovani [11]) | IC50 [12] |
| --- | --- | --- | --- | --- | --- | --- | --- | --- | --- | --- | --- | --- |
| CC(C)CC(=O)NC(c1cccs1)c1ccc2cccnc2c1O (centres undefined) | 6.31 µM | > 100 µM | 0.631 µM | 2 µM | 3.16 µM | 7.94 µM | 1.58 µM | 0.631 µM | 0.794 µM | 1.26 µM | 1.58 µM | 50.1 µM |
| COc1ccccc1-n1c(SCC(=O)Nc2ccc3c(c2)OCO3)nc2c(c1=O)SCC2 | 10 µM | > 100 µM | > 39.8 µM | > 50.1 µM | 5.01 µM | 7.94 µM | 39.8 µM | > 39.8 µM | 7.94 µM | 15.8 µM | > 50.1 µM | 63.1 µM |
| COc1ccc2ncc(Cl)c(CCN3CC[C@@H](NCc4cc5c(cn4)OCS5)[C@H](O)C3)c2n1 | 10 µM | 50.1 µM | 0.316 µM | 25.1 µM | 7.94 µM | 12.6 µM | 0.126 µM | 0.398 µM | 0.0631 µM | 0.0794 µM | 25.1 µM | 1 µM |
| COc1ccc2ncc(Cl)c(CCN3CC[C@H](NCc4cc5c(cn4)OCS5)[C@@H](O)C3)c2n1 | 2 µM | 25.1 µM | 0.316 µM | 10 µM | 0.501 µM | 1 µM | 0.126 µM | 0.631 µM | 0.1 µM | 0.158 µM | 6.31 µM | 7.94 µM |
| C[C@@H](Oc1cc(-n2cnc3ccc(O[C@H]4CCNC4)cc32)sc1C(N)=O)c1ccccc1Cl | > 50.1 µM | 15.8 µM | 0.251 µM | 0.631 µM | 5.01 µM | 7.94 µM | 3.16 µM | 0.794 µM | 6.31 µM | 12.6 µM | 6.31 µM | 1.26 µM |
| O=C(Cc1ccccc1)Nc1ccccc1C(=O)Nc1nccs1 | > 50.1 µM | > 100 µM | 0.251 µM | > 50.1 µM | > 50.1 µM | > 50.1 µM | 39.8 µM | 0.251 µM | > 50.1 µM | > 50.1 µM | > 50.1 µM | > 100 µM |
| CC(C)(C)c1csc(NC(=O)c2ccc([N+](=O)[O-])s2)n1 | 1.58 µM | 50.1 µM | 0.2 µM | 12.6 µM | 2.51 µM | 3.16 µM | 0.158 µM | 1.58 µM | 0.2 µM | 0.316 µM | > 50.1 µM | 7.94 µM |
| CCN(Cc1nc2ccc(C(=O)N3CCN(c4ncccn4)CC3)cc2[nH]1)C1CCCc2cccnc21 (centres undefined) | 5.01 µM | > 100 µM | 2.51 µM | 15.8 µM | 1.58 µM | 3.98 µM | 1.26 µM | 5.01 µM | 2 µM | 12.6 µM | 20 µM | 7.94 µM |
| O=C(Nc1nc(-c2ccc(F)cc2)cs1)c1ccc([N+](=O)[O-])s1 | 0.631 µM | 12.6 µM | 0.251 µM | 3.98 µM | 1 µM | 1.26 µM | 0.2 µM | 1.26 µM | 0.158 µM | 0.251 µM | 7.94 µM | 50.1 µM |
| COc1ccc(-c2csc(NC(=O)c3ccc([N+](=O)[O-])s3)n2)cc1 | 3.16 µM | > 100 µM | 0.0794 µM | 31.6 µM | 1.58 µM | 3.98 µM | 0.158 µM | 0.794 µM | 0.2 µM | 0.251 µM | > 50.1 µM | > 100 µM |
| CN(Cc1nc2cccc(C(=O)N3CCN(Cc4ccccc4)CC3)c2[nH]1)C1CCCc2cccnc21 (centres undefined) | 5.01 µM | 12.6 µM | 0.631 µM | 7.94 µM | 0.794 µM | 1.26 µM | 0.794 µM | 1 µM | 0.501 µM | 0.501 µM | 10 µM | 39.8 µM |
| O=C(COc1ccccc1)Nc1ccccc1C(=O)Nc1nccs1 | > 50.1 µM | > 100 µM | 0.398 µM | > 50.1 µM | > 50.1 µM | > 50.1 µM | > 50.1 µM | 0.631 µM | > 50.1 µM | > 50.1 µM | 7.94 µM | > 100 µM |
| CCOc1ccccc1C(=O)Nc1nnc(-c2ccc3c(c2)OCO3)s1 | 0.794 µM | > 100 µM | > 39.8 µM | > 50.1 µM | 0.316 µM | 0.501 µM | 0.631 µM | > 39.8 µM | 0.0631 µM | 0.0794 µM | > 50.1 µM | > 100 µM |
| COc1ccc(-c2csc(NC(=O)c3ccc([N+](=O)[O-])s3)n2)cc1OC | 1 µM | 10 µM | 0.126 µM | 6.31 µM | 1.26 µM | 1.26 µM | 0.1 µM | 0.631 µM | 0.0794 µM | 0.1 µM | 31.6 µM | > 100 µM |
| O=C(CN1CCN(S(=O)(=O)c2cccc([N+](=O)[O-])c2)CC1)Nc1ccc(Oc2ccccc2)cc1 | 3.98 µM | > 100 µM | 20 µM | > 50.1 µM | 2 µM | 7.94 µM | 2.51 µM | 15.8 µM | 1.26 µM | 2.51 µM | > 50.1 µM | 2.51 µM |
| COc1ccc2ncc(F)c(CCN3CC[C@@H](NC(=O)c4cc5c(s4)CCC5)[C@@H](O)C3)c2n1 | 1 µM | 50.1 µM | 0.1 µM | 0.126 µM | 1.26 µM | 6.31 µM | 0.158 µM | 0.316 µM | 0.0501 µM | 0.126 µM | 25.1 µM | 1.26 µM |
| CC(=O)NC1(c2ccccc2)CCN(CC(=O)Nc2ccccc2-c2ccccc2)CC1 | 20 µM | > 100 µM | 0.631 µM | > 50.1 µM | 39.8 µM | > 50.1 µM | 1.26 µM | 0.501 µM | 1.58 µM | 7.94 µM | > 50.1 µM | 50.1 µM |
